Measured values published in patent US7795257B2, “Organic compounds” (Novartis AG, priority 2005, dated 2010).
pEC50: −log10 of the molar value. Counter-ions that a name gives are not always drawn.

target: T1, recombinant GST-GK (Homo sapiens, UniProt P35557); experiment: primary enzyme assay: glucokinase activation in vitro (thio-NADH coupled assay); type: biochemical; settings: concentration of compound that produces a 50% increase in the activity of GK vs DMSO control; 10 mM glucose, 25° C.
T1 sequence (P35557 1-465): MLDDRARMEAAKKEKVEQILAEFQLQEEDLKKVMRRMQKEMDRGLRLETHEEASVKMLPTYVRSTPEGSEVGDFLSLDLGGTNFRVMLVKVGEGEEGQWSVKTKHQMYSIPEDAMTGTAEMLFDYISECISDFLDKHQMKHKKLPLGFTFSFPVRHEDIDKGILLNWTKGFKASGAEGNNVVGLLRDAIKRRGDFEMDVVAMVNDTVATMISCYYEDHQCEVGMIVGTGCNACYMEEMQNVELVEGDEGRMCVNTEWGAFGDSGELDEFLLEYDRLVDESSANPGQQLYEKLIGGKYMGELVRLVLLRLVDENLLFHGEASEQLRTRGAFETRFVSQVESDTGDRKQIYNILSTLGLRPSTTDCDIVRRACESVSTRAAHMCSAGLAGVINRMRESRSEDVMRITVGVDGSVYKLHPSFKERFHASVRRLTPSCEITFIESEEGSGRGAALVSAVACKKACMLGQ
Text: For example, the glucokinase activation in vitro may be determined by measuring the activation of recombinant GST-GK by a compound of the present invention in the absence or the presence of GKRP, a 68,000 Da protein inhibitor of GK. In these assays, formation of glucose-6-phosphate is coupled directly to the formation of thio-NADH. GST-GK catalyzes the reaction of glucose and Mg-ATP to produce glucose-6-phosphate and ADP. Glucose-6-phosphate dehydrogenase (G6PDH) reduces thionicotinamide (thio-NAD) to thio-NADH. The assay measures the formation of thio-NADH at […].
The basic GK assay components are as follows: 25 mM HEPES (pH 7.1), 25 mM KCl, 2.5 mM MgCl2, 1 mM ATP (Sigma A-5394), 1 mM DTT, 1 mM thio-NAD (Sigma T-7375), 80 units/mL G6PDH (Sigma G-5885), 10 mM glucose and 110 nM GST-GK. For assessing reversal of GK inhibition by GKRP, 20 μM Fructose-6-phosphate (F-6-P) and 370 nM recombinant GKRP are added to these assay components. Fructose-1-phosphate (F-1-P) at 1 μM is used as a control in the GK/GKRP assay. F-1-P reverses inhibition of GST-GK by GKRP.
The assay is done in standard, 96-well, round-bottom plates (Corning) and the total assay volume is 25 μL. Test compounds are serially diluted into 100% DMSO and 0.5 μL of diluted compound in 100% DMSO is added to the assay plate. Assay reagents (24.5 μL) are added using a Zymark robotic platform. Buffer, containing HEPES, MgCl2, KCl, thio-NAD, G6PDH, glucose and GST-GK, are added (5 μL) using the Zymark 8-channel hand pipet. For the GK/GKRP assay, GKRP and F-6-P are also included. The reaction is then initiated by adding 19.5 μL of buffer containing HEPES, MgCl2, KCl, DTT and ATP using the Zymark Reagent Addition Station/Reagent Addition Module. The plates are read kinetically over 10 min at 25° C. using a SpectraMax Plus microplate spectrophotometer (Molecular Devices, Sunnyvale, Calif.) to monitor the increase in optical density at 405 nm. The GK activity in wells containing test compounds is compared with activity in DMSO control wells. The concentration of compound that produces a 50% increase in the activity of GK is calculated and expressed as EC50.

Row | Structure (SMILES) | pEC50
1 | CN1CCN(S(=O)(=O)c2ccc(C(CC3CCCC3)C(=O)Nc3nccc4ccccc34)cc2)CC1 (stereo not shown) [Example 1, 3-Cyclopentyl-N-isoquinolin-1-yl-2-[4-(4-methyl-piperazine-1-sulfonyl)-phenyl]-propionamide hydrochloride] | 4.30
2 | COc1ccc2nc(NC(=O)C(CC3CCCC3)c3ccc(S(=O)(=O)N4CCC(C(=O)O)CC4)cc3)sc2n1 (stereo not shown) [Example 3, 1-{4-[2-Cyclopentyl-1-(5-methoxy-thiazolo[5,4-b]pyridin-2-ylcarbamoyl)-ethyl]-benzenesulfonyl}-piperidine-4-carboxylic acid] | 5.15
3 | CCN(CC)S(=O)(=O)c1ccc(C(CC2CCCC2)C(=O)Nc2nccs2)cc1 (stereo not shown) [Example 4-15, 3-Cyclopentyl-2-(4-diethylsulfamoyl-phenyl)-N-thiazol-2-yl-propionamide] | 7.22
4 | COCCN(C)C(=O)c1ccc2nc(NC(=O)[C@H](CC3CCCC3)c3ccc(S(=O)(=O)N4CCN(C)CC4)cc3)sc2n1 [Example 4-52, 2-{(R)-3-Cyclopentyl-2-[4-(4-methyl-piperazine-1-sulfonyl)-phenyl]-propionylamino}-thiazolo[5,4-b]pyridine-5-carboxylic acid (2-methoxy-ethyl)-methyl-amide] | 5.68
5 | COc1ccc2nc(NC(=O)C(CC3CCCC3)c3ccc(S(=O)(=O)N4CCNCC4C(=O)O)cc3)sc2n1 (stereo not shown) [Example 4-94, 1-{4-[2-Cyclopentyl-1-(5-methoxy-thiazolo[5,4-b]pyridin-2-ylcarbamoyl)-ethyl]-benzenesulfonyl}-piperazine-2-carboxylic acid] | 5.03

More lines, in order of rising pEC50, values ahead:

Row | pEC50 | Structure (SMILES)
6 | 5.85 | CN1CCN(S(=O)(=O)c2ccc(C(CC3CCCC3)C(=O)Nc3ccc(C(=O)O)cn3)cc2)CC1 (stereo not shown) [Example 4-23, 6-{3-Cyclopentyl-2-[4-(4-methyl-piperazine-1-sulfonyl)-phenyl]-propionylamino}-nicotinic acid]
7 | 5.96 | CN1CCN(S(=O)(=O)c2ccc(C(CC3CCCC3)C(=O)Nc3nccc4ccccc34)cc2)CC1 (stereo not shown) [Example 4-1, 3-Cyclopentyl-N-isoquinolin-1-yl-2-[4-(4-methyl-piperazine-1-sulfonyl)-phenyl]-propionamide]
8 | 6.41 | CN1CCN(S(=O)(=O)c2ccc(C(CC3CCCC3)C(=O)Nc3nc4ccc(Br)nc4s3)cc2)CC1 (stereo not shown) [Example 4-22, N-(5-Bromo-thiazolo[5,4-b]pyridin-2-yl)-3-cyclopentyl-2-[4-(4-methyl-piperazine-1-sulfonyl)-phenyl]-propionamide]
9 | 6.59 | CN1CCN(S(=O)(=O)c2ccc(C(CC3CCCC3)C(=O)Nc3nc4ccc(-c5ccccc5)nc4s3)cc2)CC1 (stereo not shown) [Example 4-44, 3-Cyclopentyl-2-[4-(4-methyl-piperazine-1-sulfonyl)-phenyl]-N-(5-phenyl-thiazolo[5,4-b]pyridin-2-yl)-propionamide]
10 | 7.02 | CCN(CC)S(=O)(=O)c1ccc(C(CC2CCCC2)C(=O)Nc2nc3c(s2)CN(C(=O)OC(C)(C)C)CC3)cc1 (stereo not shown) [Example 4-8, 2-[3-Cyclopentyl-2-(4-diethylsulfamoyl-phenyl)-propionylamino]-6,7-dihydro-4H-thiazolo[5,4-c]pyridine-5-carboxylic acid tert-butyl ester]
